IC50 data for 3 molecules are collected here from PMC5852498, “Lactomycins A–C, Dephosphorylated Phoslactomycin Derivatives That Inhibit Cathepsin B, from the Marine-Derived Streptomyces sp. ACT232” (Marine Drugs, 2018).

pIC50: −log10 of the molar value. Like-named read-outs stand apart in the source and are kept apart here.

The experiment has as its target T1, cathepsin B (Bos taurus, UniProt P07688).
T1 construct: gene CTSB; cathepsin B from bovine spleen (Sigma C6286)
Kind of experiment: fluorogenic enzyme assay with Z-Arg-Arg-AMC, pH […] °C. Format: biochemical.

Take `CC[C@H]1C=CC(=O)O[C@H]1/C=C/[C@](O)(CCO)[C@H](O)C[C@@H](O)/C=C\C=C/[C@@H]1CCC[C@H](O)C1` [compound 1, Lactomycin A]: under “read-out: IC50”, the pIC50 – broadly, the negative decadic logarithm of the IC50, by convention in mol/L – is 5.35.

`CC[C@H]1C=CC(=O)O[C@H]1/C=C/[C@](O)(CCN)[C@H](O)C[C@@H](O)/C=C\C=C/[C@@H]1CCC[C@H](O)C1` [compound 2, Lactomycin B]: where the note is “read-out: IC50”, the negative logarithm of the IC50 (pIC50) is 6.10. `CC[C@H]1C=CC(=O)O[C@H]1/C=C/[C@@](C)(O)[C@H](O)C[C@@H](O)/C=C\C=C/[C@@H]1CCC[C@H](O)C1` [compound 3, Lactomycin C] showed a pIC50 of 5.80.
